Reference: US10975056B2 (GlaxoSmithKline Intellectual Property Development Limited, priority 2016, dated 2021)
Counter-ions that a name gives are not always drawn.

Tests used:
DNMT1 = DNMT1 (Homo sapiens, UniProt P26358); test: DNMT1 biochemical activity, breaklight assay and/or SPA assay; settings: binned activity in either the breaklight or the SPA assay; for IC50: read-out: DNMT1 BioChemical (pIC50 category) (converted)
[1] = system: erythroid progenitor cells (EPCs); test: Fetal hemoglobin (HbF) ELISA in day 7 erythroid progenitor cells; format: cell-based, human; settings: Homo sapiens, Erythroid progenitor cell, HbF ELISA, day 7 EPCs, 5 days; read-out: EPC ELISA (pEC50 category) (converted);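 also: for fetal hemoglobin induction normalized to vehicle-treated cells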
In short: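 HbF induction was read by anti-HbF sandwich ELISA (HRP/TMB, OD450) on lysates and normalized to vehicle-treated cells. Cells were day 7 erythroid progenitors derived from human bone marrow CD34+ cells, seeded at 1,000/well with 3 U/mL rhEPO. Compound was given for 5 days at 37 °C at final concentrations […].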

Sequence of DNMT1 (P26358 whole entry, looked up): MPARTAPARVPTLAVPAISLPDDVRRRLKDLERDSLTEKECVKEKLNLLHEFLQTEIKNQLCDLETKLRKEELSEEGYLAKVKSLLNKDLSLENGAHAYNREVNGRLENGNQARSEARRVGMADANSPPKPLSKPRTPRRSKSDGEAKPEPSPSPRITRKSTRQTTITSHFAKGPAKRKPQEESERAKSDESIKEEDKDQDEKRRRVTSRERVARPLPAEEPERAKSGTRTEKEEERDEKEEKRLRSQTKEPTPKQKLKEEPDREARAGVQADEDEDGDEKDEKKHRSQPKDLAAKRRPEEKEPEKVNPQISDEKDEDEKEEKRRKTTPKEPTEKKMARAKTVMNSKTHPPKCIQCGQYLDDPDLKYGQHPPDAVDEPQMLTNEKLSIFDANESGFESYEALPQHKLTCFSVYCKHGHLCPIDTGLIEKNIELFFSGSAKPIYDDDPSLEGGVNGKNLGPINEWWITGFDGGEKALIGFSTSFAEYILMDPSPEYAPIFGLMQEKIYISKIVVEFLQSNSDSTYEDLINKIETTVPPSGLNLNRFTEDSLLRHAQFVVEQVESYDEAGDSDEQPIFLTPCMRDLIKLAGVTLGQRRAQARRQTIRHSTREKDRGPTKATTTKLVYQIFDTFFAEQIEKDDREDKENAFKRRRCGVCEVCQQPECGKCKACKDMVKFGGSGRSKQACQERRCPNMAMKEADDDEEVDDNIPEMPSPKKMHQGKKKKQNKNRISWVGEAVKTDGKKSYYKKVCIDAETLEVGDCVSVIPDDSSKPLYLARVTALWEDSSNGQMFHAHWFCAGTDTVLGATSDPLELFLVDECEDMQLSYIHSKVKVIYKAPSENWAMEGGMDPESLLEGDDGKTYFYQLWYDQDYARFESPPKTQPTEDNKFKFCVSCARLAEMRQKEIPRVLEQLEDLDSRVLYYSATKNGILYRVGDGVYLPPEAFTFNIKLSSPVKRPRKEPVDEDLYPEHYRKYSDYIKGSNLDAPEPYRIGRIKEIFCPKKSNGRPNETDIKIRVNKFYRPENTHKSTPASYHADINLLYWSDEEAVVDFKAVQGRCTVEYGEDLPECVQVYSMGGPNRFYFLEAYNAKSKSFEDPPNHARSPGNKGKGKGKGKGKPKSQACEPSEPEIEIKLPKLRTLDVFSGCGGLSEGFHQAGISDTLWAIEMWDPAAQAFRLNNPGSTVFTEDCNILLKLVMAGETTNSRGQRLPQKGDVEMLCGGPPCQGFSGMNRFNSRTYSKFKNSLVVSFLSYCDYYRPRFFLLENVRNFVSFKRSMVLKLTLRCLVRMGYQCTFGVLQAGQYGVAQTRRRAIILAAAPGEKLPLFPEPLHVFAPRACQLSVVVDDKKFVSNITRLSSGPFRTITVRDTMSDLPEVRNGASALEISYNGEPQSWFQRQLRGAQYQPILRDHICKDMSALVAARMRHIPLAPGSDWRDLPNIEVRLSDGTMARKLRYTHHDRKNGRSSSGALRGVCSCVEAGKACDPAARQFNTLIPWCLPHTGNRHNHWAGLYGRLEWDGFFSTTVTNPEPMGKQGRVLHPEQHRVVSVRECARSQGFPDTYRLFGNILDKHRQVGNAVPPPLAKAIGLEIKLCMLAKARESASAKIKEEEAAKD

| Structure (SMILES) | DNMT1 BioChemical (pIC50 category) (DNMT1) | EC50 [1] [nM] | IC50 (DNMT1) [nM] |
| --- | --- | --- | --- |
| CCc1c(C#N)c(S[C@@H](C(N)=O)c2ccccc2)nc(N2CC[C@](O)(CO)C2)c1C#N [Example 689, (R)-2-((3,5-dicyano-4-ethyl-6-((R)-3-hydroxy-3-(hydroxymethyl)pyrrolidin-1-yl)pyridin-2-yl)thio)-2-phenylacetamide] | D (Category D: ≥6.5) | 1000 to 31600 | – |
| CCc1c(C#N)c(SCc2ccc(CNC(C)=O)cc2)nc(N2CCC(O)C2)c1C#N (stereo not shown) [Example 331, N-(4-(((3,5-Dicyano-4-ethyl-6-(3-hydroxypyrrolidin-1-yl)pyridin-2-yl)thio)methyl)benzyl)acetamide] | – | > 31600 | 316 to 1000 |
| CCc1c(C#N)c(SC(C(N)=O)c2ccccc2)nc(SC(C(N)=O)c2ccccc2)c1C#N (stereo not shown) [Example 276, 2,2′-((3,5-Dicyano-4-ethylpyridine-2,6-diyl)bis(sulfanediyl))bis(2-phenylacetamide)] | – | > 31600 | 316 to 1000 |
| CCc1c(C#N)c(SC(C(N)=O)c2ccccc2)nc(N(C)CCn2cnnc2)c1C#N (stereo not shown) [Example 352, 2-((6-((2-(4H-1,2,4-Triazol-4-yl)ethyl)(methyl)amino)-3,5-dicyano-4-ethylpyridin-2-yl)thio)-2-phenylacetamide] | – | 1000 to 31600 | 316 to 1000 |
| CCc1c(C#N)c(SC(C(N)=O)c2ccccc2)nc(N2CC[C@H](NCC(C)(C)O)C2)c1C#N (stereo partly drawn) [Example 541, 2-((3,5-dicyano-4-ethyl-6-((S)-3-((2-hydroxy-2-methylpropyl)amino)pyrrolidin-1-yl)pyridin-2-yl)thio)-2-phenylacetamide] | D (Category D: ≥6.5) | < 316 | – |
| CCc1c(C#N)c(SCc2ccc(N(C)S(C)(=O)=O)cc2)nc(N(C)CCNCCOC)c1C#N [Example 480] | D (Category D: ≥6.5) | 316 to 1000 | – |
| CCc1c(C#N)c(SCc2ccc(CC(=O)NCCO)cc2)nc(N2CCCN(C)CC2)c1C#N [Example 343, 2-(4-(((3,5-Dicyano-4-ethyl-6-(4-methyl-1,4-diazepan-1-yl)pyridin-2-yl)thio)methyl)phenyl)-N-(2-hydroxyethyl)acetamide] | D (Category D: ≥6.5) | 316 to 1000 | – |
| CCc1c(C#N)c(SCc2ccc(CN)cc2)nc(N2CCCN(C)CC2)c1C#N [Example 71, 2-((4-(Aminomethyl)benzyl)thio)-4-ethyl-6-(4-methyl-1,4-diazepan-1-yl)pyridine-3,5-dicarbonitrile, 2Hydrochloride] | D (Category D: ≥6.5) | > 31600 | – |
| CC(=O)NCc1ccc(CSc2nc(N3CCCN(C)CC3)c(C#N)c(-c3ccco3)c2C#N)cc1 [Example 414] | – | 1000 to 31600 | 316 to 1000 |
| CCc1c(C#N)c(SC(C(N)=O)c2ccccc2)nc(N(C)CCC(N)=O)c1C#N (stereo not shown) [Example 230, 3-((6-(2-Amino-2-oxo-1-phenylethylthio)-3,5-dicyano-4-ethylpyridin-2-yl)(methyl)amino)propanamide] | – | 1000 to 31600 | 316 to 1000 |
| CCc1c(C#N)c(SC(C(N)=O)c2ccccc2)nc(N2CCc3ccncc3C2)c1C#N (stereo not shown) [Example 178, 2-((3,5-Dicyano-6-(3,4-dihydro-2,7-naphthyridin-2 (1H)-yl)-4-ethylpyridin-2-yl)thio)-2-phenylacetamide] | D (Category D: ≥6.5) | 1000 to 31600 | – |
| CCCOc1c(C#N)c(SC(C(N)=O)c2ccccc2)nc(N2CCCN(CCO)CC2)c1C#N (stereo not shown) [Example 213, 2-((3,5-Dicyano-6-(4-(2-hydroxyethyl)-1,4-diazepan-1-yl)-4-propoxypyridin-2-yl)thio)-2-phenylacetamide] | – | 1000 to 31600 | 316 to 1000 |
| CCOc1c(C#N)c(SCc2ccc(CNC(C)=O)cc2)nc(N2CCCN(C)CC2)c1C#N [Example 105, N-(4-(((3,5-Dicyano-4-ethoxy-6-(4-methyl-1,4-diazepan-1-yl)pyridin-2-yl)thio)methyl)benzyl)acetamide] | D (Category D: ≥6.5) | 1000 to 31600 | – |
| CCc1c(C#N)c(SCc2ccc(CNC(=O)[C@@H](C)N)cc2)nc(N2CCCN(C)CC2)c1C#N [Example 98, (R)-2-Amino-N-(4-(((3,5-dicyano-4-ethyl-6-(4-methyl-1,4-diazepan-1-yl)pyridin-2-yl)thio)methyl)benzyl)propanamide] | D (Category D: ≥6.5) | > 31600 | – |
| CCc1c(C#N)c(S[C@@H](C(N)=O)c2ccccc2)nc(N(C)CCCO)c1C#N [Example 695, (R)-2-((3,5-dicyano-4-ethyl-6-((3-hydroxypropyl)(methyl)amino)pyridin-2-yl)thio)-2-phenylacetamide] | D (Category D: ≥6.5) | 1000 to 31600 | – |
| CCc1c(C#N)c(SCc2ccc(N(C)S(=O)(=O)CF)cc2)nc(N2CCCN(C)CC2)c1C#N [Example 595, N-(4-(((3,5-dicyano-4-ethyl-6-(4-methyl-1,4-diazepan-1-yl)pyridin-2-yl)thio)methyl)phenyl)-1-fluoro-N-methylmethanesulfonamide] | D (Category D: ≥6.5) | < 316 | – |
| CCC(=O)NCc1ccc(CSc2nc(N3CCCN(C)CC3)c(C#N)c(CC)c2C#N)cc1 [Example 87, N-(4-(((3,5-Dicyano-4-ethyl-6-(4-methyl-1,4-diazepan-1-yl)pyridin-2-yl)thio)methyl)benzyl)propionamide] | D (Category D: ≥6.5) | 316 to 1000 | – |
| CCc1c(C#N)c(SC(C(N)=O)c2ccccc2)nc(N(C)CC(=O)NOC)c1C#N (stereo not shown) [Example 663, 2-((6-((2-amino-2-oxo-1-phenylethyl)thio)-3,5-dicyano-4-ethylpyridin-2-yl)(methyl)amino)-N-methoxyacetamide] | D (Category D: ≥6.5) | < 316 | – |
| CCc1c(C#N)c(SC(C(N)=O)c2ccccc2)nc(N(C)C2CCN(C)C2)c1C#N (stereo not shown) [Example 699, 2-((3,5-dicyano-4-ethyl-6-(methyl(1-methylpyrrolidin-3-yl)amino)pyridin-2-yl)thio)-2-phenylacetamide] | – | 1000 to 31600 | 316 to 1000 |
| CCc1c(C#N)c(SC(C(N)=O)c2ccccc2)nc(N2CCC(NC(=O)[C@H](N)CO)CC2)c1C#N (stereo partly drawn) [Example 398, (2R)-2-Amino-N-(1-(6-((2-amino-2-oxo-1-phenylethyl)thio)-3,5-dicyano-4-ethylpyridin-2-yl)piperidin-4-yl)-3-hydroxypropanamide] | D (Category D: ≥6.5) | 1000 to 31600 | – |
| CCc1c(C#N)c(SC(C(N)=O)c2ccccc2)nc(N2CCC(N(C)CC(C)(C)C)CC2)c1C#N (stereo not shown) [Example 551, 2-((3,5-dicyano-4-ethyl-6-(4-(methyl(neopentyl)amino)piperidin-1-yl)pyridin-2-yl)thio)-2-phenylacetamide] | D (Category D: ≥6.5) | < 316 | – |
| CCc1c(C)c(N2CCNCC2)nc(SC(C(N)=O)c2ccccc2)c1C#N (stereo not shown) [Example 293, 2-((3-Cyano-4-ethyl-5-methyl-6-(piperazin-1-yl)pyridin-2-yl)thio)-2-phenylacetamide] | – | > 31600 | 316 to 1000 |
| CCc1c(C#N)c(SC(C(N)=O)c2ccccc2)nc(N2CCC(N3[C@@H](C)CC[C@@H]3C)CC2)c1C#N (stereo partly drawn) [Example 462, 2-((3,5-dicyano-6-(4-((2S,5S)-2,5-dimethylpyrrolidin-1-yl)piperidin-1-yl)-4-ethylpyridin-2-yl)thio)-2-phenylacetamide] | D (Category D: ≥6.5) | < 316 | – |
| CCc1c(C#N)c(SC(C(N)=O)c2ccccc2)nc(N2CC(N)C2)c1C#N (stereo not shown) [Example 281, 2-((6-(3-Aminoazetidin-1-yl)-3,5-dicyano-4-ethylpyridin-2-yl)thio)-2-phenylacetamide] | D (Category D: ≥6.5) | 316 to 1000 | – |
| CCc1c(C#N)c(SC(C(N)=O)c2ccccc2)nc(N2CCC3(CCCNC3)CC2)c1C#N (stereo not shown) [Example 116, 2-((3,5-Dicyano-4-ethyl-6-(2,9-diazaspiro[5.5]undecan-9-yl)pyridin-2-yl)thio)-2-phenylacetamide] | D (Category D: ≥6.5) | < 316 | – |
| CCc1c(C#N)c(SC(C(N)=O)c2ccccc2)nc(N(C)CCN2CCC[C@@H]2C)c1C#N (stereo partly drawn) [Example 463, 2-((3,5-dicyano-4-ethyl-6-(methyl(2-((S)-2-methylpyrrolidin-1-yl)ethyl)amino)pyridin-2-yl)thio)-2-phenylacetamide] | D (Category D: ≥6.5) | < 316 | – |
| CCc1c(C#N)c(SCc2ccc(NC(=O)CO)cc2)nc(N2CCCN(C)CC2)c1C#N [Example 301, N-(4-(((3,5-Dicyano-4-ethyl-6-(4-methyl-1,4-diazepan-1-yl)pyridin-2-yl)thio)methyl)phenyl)-2-hydroxyacetamide] | D (Category D: ≥6.5) | 316 to 1000 | – |
| N#Cc1c(SC(C(N)=O)c2ccccc2)nc(N2CCC(NCCO)CC2)c(C#N)c1C1CC1 (stereo not shown) [Example 657, 2-((3,5-dicyano-4-cyclopropyl-6-(4-((2-hydroxyethyl)amino)piperidin-1-yl)pyridin-2-yl)thio)-2-phenylacetamide] | D (Category D: ≥6.5) | 1000 to 31600 | – |
| CCc1c(C#N)c(SCc2ccc(CNC(C)=O)cc2)nc(N2CC(OC(=O)[C@@H](N)C(C)C)C2)c1C#N [Example 282, (S)-1-(6-((4-(Acetamidomethyl)benzyl)thio)-3,5-dicyano-4-ethylpyridin-2-yl)azetidin-3-yl 2-amino-3-methylbutanoate, Trifluoroacetic Acid Salt] | D (Category D: ≥6.5) | 1000 to 31600 | – |
